This note sets out measurements from patent US10533010B2, “Substituted indole Mcl-1 inhibitors” (Vanderbilt University, priority 2014, dated 2020).

By Ki is commonly meant a dissociation constant, usually derived from enzyme kinetics or from competition with a known ligand.

This test deals with recombinant Mcl-1 (residues 172-327) (Homo sapiens (Human), UniProt Q07820). The test can be described thus: Fluorescence polarization anisotropy competition assay (FITC-Bak or FITC-Bim BH3 peptide) with Mcl-1. Format: binding. To be noted: Table 2, FITC-Bak or FITC-Bim peptide competition, Ki converted from IC50, read-out: Ki for Inhibition of Mcl-1. In general terms: Fluorescence polarisation rises when a labelled molecule tumbles more slowly, as on binding a larger partner.

Structures are written as SMILES. Where two headings read alike, the source gives them in different places.

recombinant Mcl-1 (residues 172-327), sequence (Q07820 172-327): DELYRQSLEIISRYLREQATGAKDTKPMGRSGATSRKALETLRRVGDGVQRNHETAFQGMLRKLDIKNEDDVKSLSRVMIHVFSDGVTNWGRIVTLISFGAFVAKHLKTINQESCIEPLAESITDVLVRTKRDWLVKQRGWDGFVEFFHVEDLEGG

With `Cc1cc(OCCCc2c3n(c4c(-c5c(C)nn(C)c5C)c(Cl)ccc24)C(C)[C@@H](C)N(c2ccc(C(=O)O)c4ncccc24)C3=O)cc(C)c1Cl` (stereo partly drawn) [I-164, 5-((3R)-7-chloro-10-(3-(4-chloro-3,5-dimethylphenoxy)propyl)-3,4-dimethyl-1-oxo-6-(1,3,5-trimethyl-1H-pyrazol-4-yl)-3,4-dihydropyrazino[1,2-a]indol-2(1H)-yl)quinoline-8-carboxylic acid], the Ki (Ki bins given in nM) lay in the range of 51 to 100 nM.
Take `Cc1cc(OCCCc2c(C(=O)NCc3cccn3CC(=O)O)[nH]c3c(-c4c(C)nn(C)c4C)cccc23)cc(C)c1Cl` [I-89, 2-(2-((3-(3-(4-chloro-3,5-dimethylphenoxy)propyl)-7-(1,3,5-trimethyl-1H-pyrazol-4-yl)-1H-indole-2-carboxamido)methyl)-1H-pyrrol-1-yl)acetic acid]: the Ki (Ki bins given in nM) was < 50 nM.
`Cc1cc(OCCCc2c(C(=O)NCC(=O)NS(=O)(=O)c3ccc4ccccc4c3)[nH]c3ccccc23)cc(C)c1Cl` [I-7, 3-(3-(4-chloro-3,5-dimethylphenoxy)propyl)-N-(2-(naphthalene-2-sulfonamido)-2-oxoethyl)-1H-indole-2-carboxamide]: the Ki (Ki bins given in nM) was 101 to 299 nM.
Regarding `Cc1cc(OCCCc2c(C(=O)Nc3ccc(C(=O)O)nc3)[nH]c3c(-c4c(C)nn(C)c4C)c(Cl)ccc23)cc(C)c1Cl` [I-185, 5-(6-chloro-3-(3-(4-chloro-3,5-dimethylphenoxy)propyl)-7-(1,3,5-trimethyl-1H-pyrazol-4-yl)-1H-indole-2-carboxamido)picolinic acid], the Ki (Ki bins given in nM) was < 50 nM.
The same measure, in the same setting: in the case of `Cc1cc(OCCCc2c3n(c4c(-c5c(C)nn(C)c5C)c(Cl)ccc24)[C@H](C)CN(c2cc(C(=O)O)c4ccn(C)c4c2)C3=O)cc(C)c1Cl` [I-174, (R)-6-(7-chloro-10-(3-(4-chloro-3,5-dimethylphenoxy)propyl)-4-methyl-1-oxo-6-(1,3,5-trimethyl-1H-pyrazol-4-yl)-3,4-dihydropyrazino[1,2-a]indol-2(1H)-yl)-1-methyl-1H-indole-4-carboxylic acid] it was < 50 nM.
Take `Cc1cc(OCCCc2c(C(=O)NCc3cc(C(=O)NC4Cc5ccccc5C4)cc(NC4Cc5ccccc5C4)n3)[nH]c3c(-c4c(C)nn(C)c4C)cccc23)cc(C)c1Cl` [I-278, 3-(3-(4-chloro-3,5-dimethylphenoxy)propyl)-N-((6-((2,3-dihydro-1H-inden-2-yl)amino)-4-((2,3-dihydro-1H-inden-2-yl)carbamoyl)pyridin-2-yl)methyl)-7-(1,3,5-trimethyl-1H-pyrazol-4-yl)-1H-indole-2-carboxamide]: the Ki (Ki bins given in μM) lay within 1000 to 9990 nM.
For the compound `Cc1cc(OCCCc2c(C(=O)NCc3ccc(C(=O)NCc4ccccc4C(F)(F)F)o3)[nH]c3ccccc23)cc(C)c1Cl` [I-58, 3-(3-(4-chloro-3,5-dimethylphenoxy)propyl)-N-((5-((2-(trifluoromethyl)benzyl)carbamoyl)furan-2-yl)methyl)-1H-indole-2-carboxamide], the Ki (Ki bins given in nM) was in the range of 101 to 299 nM.
Still for that read-out and setting: in the case of `Cc1cc(OCCCc2c3n(c4c(-c5c(C)nn(C)c5C)c(Cl)ccc24)CCNC3=O)cc(C)c1Cl` [I-117, 7-chloro-10-(3-(4-chloro-3,5-dimethylphenoxy)propyl)-6-(1,3,5-trimethyl-1H-pyrazol-4-yl)-3,4-dihydropyrazino[1,2-a]indol-1(2H)-one] it was < 50 nM; in that of `Cc1cc(OCCCc2c3n(c4c(-c5c(C)nn(C)c5C)c(Cl)ccc24)CCC(C)N(Cc2ccc(C(=O)O)cc2)C3=O)cc(C)c1Cl` (stereo not shown) [I-127, 4-((8-chloro-11-(3-(4-chloro-3,5-dimethylphenoxy)propyl)-3-methyl-1-oxo-7-(1,3,5-trimethyl-1H-pyrazol-4-yl)-4,5-dihydro-1H-[1,4]diazepino[1,2-a]indol-2(3H)-yl)methyl)benzoic acid], < 50 nM; in that of `Cc1cc(OCCCc2c(C(=O)N3CCC(C(=O)O)C3)[nH]c3c(-c4c(C)nn(C)c4C)c(Cl)ccc23)cc(C)c1Cl` (stereo not shown) [I-336, 1-(6-chloro-3-(3-(4-chloro-3,5-dimethylphenoxy)propyl)-7-(1,3,5-trimethyl-1H-pyrazol-4-yl)-1H-indole-2-carbonyl)pyrrolidine-3-carboxylic acid], < 50 nM.
As for `Cc1cc(OCCCc2c(C(=O)NCc3ccc(C(=O)O)o3)n(C)c3c(-c4c(C)nn(C)c4C)cccc23)cc(C)c1Cl` [I-66, 5-((3-(3-(4-chloro-3,5-dimethylphenoxy)propyl)-1-methyl-7-(1,3,5-trimethyl-1H-pyrazol-4-yl)-1H-indole-2-carboxamido)methyl)furan-2-carboxylic acid], the Ki by setting is: (Ki bins given in nM) < 50 nM; (Ki bins given in μM) 10000 to 50000 nM.
For the compound `Cc1cc(OCCCc2c3n(c4c(-c5c(C)nn(C)c5C)c(Cl)ccc24)C(C)[C@@H](C)N(Cc2cccc(C(=O)O)c2)C3=O)cc(C)c1Cl` (stereo partly drawn) [I-145, 3-(((3R)-7-chloro-10-(3-(4-chloro-3,5-dimethylphenoxy)propyl)-3,4-dimethyl-1-oxo-6-(1,3,5-trimethyl-1H-pyrazol-4-yl)-3,4-dihydropyrazino[1,2-a]indol-2(1H)-yl)methyl)benzoic acid], the Ki (Ki bins given in nM) was < 50 nM.
Still for that read-out and setting: the same measure for `Cc1cc(OCCCc2c(C(=O)N[C@H]3CCC[C@H]3C(=O)O)[nH]c3c(-c4c(C)nn(C)c4C)cccc23)cc(C)c1Cl` [I-314, (1R,2S)-2-(3-(3-(4-chloro-3,5-dimethylphenoxy)propyl)-7-(1,3,5-trimethyl-1H-pyrazol-4-yl)-1H-indole-2-carboxamido)cyclopentane-1-carboxylic acid]: 51 to 100 nM.
As to `Cc1cc(OCCCc2c(C(=O)NCc3cccc(C(=O)O)c3)n(CCN3CCOCC3)c3c(-c4c(C)nn(C)c4C)c(Cl)ccc23)cc(C)c1Cl` [I-372, 3-((6-chloro-3-(3-(4-chloro-3,5-dimethylphenoxy)propyl)-1-(2-morpholinoethyl)-7-(1,3,5-trimethyl-1H-pyrazol-4-yl)-1H-indole-2-carboxamido)methyl)benzoic acid], where the note is “Ki bins given in nM”, the Ki was < 50 nM.
For `Cc1cc(OCCCc2c(C(=O)NCCC(=O)NS(=O)(=O)c3cccc([N+](=O)[O-])c3)[nH]c3ccccc23)cc(C)c1Cl` [I-21, 3-(3-(4-chloro-3,5-dimethylphenoxy)propyl)-N-(3-((3-nitrophenyl)sulfonamido)-3-oxopropyl)-1H-indole-2-carboxamide], the Ki (Ki bins given in nM) lay in the range of 101 to 299 nM.
Turning to `Cc1cc(OCCCc2c3n(c4c(-c5c(C)nn(C)c5C)c(Cl)ccc24)CCCN(C[C@H]2CC[C@H](C(=O)O)CC2)C3=O)cc(C)c1Cl` [I-371, (1r,4r)-4-((8-chloro-11-(3-(4-chloro-3,5-dimethylphenoxy)propyl)-1-oxo-7-(1,3,5-trimethyl-1H-pyrazol-4-yl)-4,5-dihydro-1H-[1,4]diazepino[1,2-a]indol-2(3H)-yl)methyl)cyclohexane-1-carboxylic acid], under “Ki bins given in nM”, the Ki is < 50 nM.
As for `Cc1cc(OCCCc2c3n(c4c(-c5c(C)nn(C)c5C)c(Cl)ccc24)CCCN(c2cc(F)cc(C(=O)O)c2)C3=O)cc(C)c1Cl` [I-223, 3-(8-chloro-11-(3-(4-chloro-3,5-dimethylphenoxy)propyl)-1-oxo-7-(1,3,5-trimethyl-1H-pyrazol-4-yl)-4,5-dihydro-1H-[1,4]diazepino[1,2-a]indol-2(3H)-yl)-5-fluorobenzoic acid], where the note is “Ki bins given in nM”, the Ki is < 50 nM.
Same read-out and setting: the same measure for `Cc1cc(OCCCc2c(C(=O)NCC(=O)N[C@@H](Cc3ccccc3)C(=O)O)[nH]c3c(-c4c(C)nn(C)c4C)cccc23)cc(C)c1Cl` [I-291, (3-(3-(4-chloro-3,5-dimethylphenoxy)propyl)-7-(1,3,5-trimethyl-1H-pyrazol-4-yl)-1H-indole-2-carbonyl)glycyl-L-phenylalanine]: < 50 nM; for `Cc1cc(OCCCc2c(C(=O)NCc3cc(C(=O)O)cc(N4CCc5ccccc5C4)n3)[nH]c3c(-c4c(C)nn(C)c4C)c(Cl)ccc23)cc(C)c1Cl` [I-282, 2-((6-chloro-3-(3-(4-chloro-3,5-dimethylphenoxy)propyl)-7-(1,3,5-trimethyl-1H-pyrazol-4-yl)-1H-indole-2-carboxamido)methyl)-6-(3,4-dihydroisoquinolin-2(1H)-yl)isonicotinic acid]: < 50 nM.
For the compound `Cc1cc(OCCCc2c(C(=O)NCCS(=O)(=O)NC(=O)CC34CC5CC(CC(C5)C3)C4)[nH]c3ccccc23)cc(C)c1Cl` [I-54, N-(2-(N-(2-((3r,5r,7r)-adamantan-1-yl)acetyl)sulfamoyl)ethyl)-3-(3-(4-chloro-3,5-dimethylphenoxy)propyl)-1H-indole-2-carboxamide], the Ki (Ki bins given in nM) is 501 to 999 nM.
As for `Cc1cc(OCCCc2c3n(c4c(-c5c(C)nn(C)c5C)c(Cl)ccc24)CCN(c2cc(C(=O)O)c4ccn(C)c4c2)C3=O)cc(C)c1Cl` [I-162, 6-(7-chloro-10-(3-(4-chloro-3,5-dimethylphenoxy)propyl)-1-oxo-6-(1,3,5-trimethyl-1H-pyrazol-4-yl)-3,4-dihydropyrazino[1,2-a]indol-2(1H)-yl)-1-methyl-1H-indole-4-carboxylic acid], the Ki (Ki bins given in nM) was < 50 nM.
As for `Cc1cc(N2CCCn3c(c(CCCOc4cc(C)c(Cl)c(C)c4)c4ccc(Cl)c(-c5c(C)nn(C)c5C)c43)C2=O)ccc1C(=O)O` [I-99, 4-(8-chloro-11-(3-(4-chloro-3,5-dimethylphenoxy)propyl)-1-oxo-7-(1,3,5-trimethyl-1H-pyrazol-4-yl)-4,5-dihydro-1H-[1,4]diazepino[1,2-a]indol-2(3H)-yl)-2-methylbenzoic acid], the Ki (Ki bins given in nM) is < 50 nM.
Turning to `Cc1cc(CN2CCCn3c(c(CCCOc4cc(C)c(Cl)c(C)c4)c4ccc(Cl)c(-c5c(C)nn(C)c5C)c43)C2=O)cc(C(=O)O)c1` [I-297, 3-((8-chloro-11-(3-(4-chloro-3,5-dimethylphenoxy)propyl)-1-oxo-7-(1,3,5-trimethyl-1H-pyrazol-4-yl)-4,5-dihydro-1H-[1,4]diazepino[1,2-a]indol-2(3H)-yl)methyl)-5-methylbenzoic acid], under “Ki bins given in nM”, the Ki was in the range of 51 to 100 nM.
With `Cc1cc(OCCCc2c3n(c4c(-c5c(C)nn(C)c5C)c(Cl)ccc24)[C@H](C)CN(Cc2ccc(C(=O)O)cn2)C3=O)cc(C)c1Cl` [I-153, (R)-6-((7-chloro-10-(3-(4-chloro-3,5-dimethylphenoxy)propyl)-4-methyl-1-oxo-6-(1,3,5-trimethyl-1H-pyrazol-4-yl)-3,4-dihydropyrazino[1,2-a]indol-2(1H)-yl)methyl)nicotinic acid], under “Ki bins given in nM”, the Ki is < 50 nM.
